From ChEMBL document CHEMBL1201862, “PubChem BioAssay data set” (2004)
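Each compound was tested at five concentrations against cells in 96-well plates for 48 hours. GI50 marks 50% less growth.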 Calls of active or inactive are those of the source. Cut-off read from the data, not from the text of the source: active = GI50 up to about 1.1 µM and inactive = higher.

Key:
Test in all cases: DTP human tumour cell line panel, 48 h
TK-10 = system: TK-10
SK-MEL-28 = system: SK-MEL-28
MDA-MB-435 = system: MDA-MB-435
OVCAR-5 = system: OVCAR-5
PC-3 = system: PC-3
SF-268 = system: SF-268
EKVX = system: EKVX
786-0 = system: 786-0
U-251 = system: U-251
HOP-92 = system: HOP-92
RPMI-8226 = system: RPMI-8226
CCRF-CEM = system: CCRF-CEM
SK-OV-3 = system: SK-OV-3
Malme-3M = system: Malme-3M
COLO 205 = system: COLO 205
A549 = system: A549
RXF 393 = system: RXF 393
OVCAR-3 = system: OVCAR-3
OVCAR-8 = system: OVCAR-8
HT-29 = system: HT-29

Compound | GI50 (TK-10) | GI50 (SK-MEL-28) | GI50 (MDA-MB-435) | GI50 (OVCAR-5) | GI50 (PC-3) | GI50 (SF-268) | GI50 (EKVX) | GI50 (786-0) | GI50 (U-251) | GI50 (HOP-92) | GI50 (RPMI-8226) | GI50 (CCRF-CEM) | GI50 (SK-OV-3) | GI50 (Malme-3M) | GI50 (COLO 205) | GI50 (A549) | GI50 (RXF 393) | GI50 (OVCAR-3) | GI50 (OVCAR-8) | GI50 (HT-29)
COC(=O)[C@@H]1CN(C(C)=O)C(=O)N1 | > 100 µM (inactive) | > 100 µM (inactive) | > 100 µM (inactive) | > 100 µM (inactive) | > 100 µM (inactive) | > 100 µM (inactive) | > 100 µM (inactive) | > 100 µM (inactive) | > 100 µM (inactive) | > 100 µM (inactive) | > 100 µM (inactive) | > 100 µM (inactive) | > 100 µM (inactive) | > 100 µM (inactive) | > 100 µM (inactive) | > 100 µM (inactive) | > 100 µM (inactive) | > 100 µM (inactive) | > 100 µM (inactive) | > 100 µM (inactive)
N#CC(=S)Nc1ccc(Cl)c(Cl)c1 | 26.5 µM (inactive) | 30.3 µM (inactive) | 27 µM (inactive) | 16.4 µM (inactive) | 23.9 µM (inactive) | 37.4 µM (inactive) | 22.9 µM (inactive) | 35.7 µM (inactive) | 23.2 µM (inactive) | 3.1 µM (inactive) | 3.2 µM (inactive) | 10 µM (inactive) | 20 µM (inactive) | 28.1 µM (inactive) | 20.6 µM (inactive) | 24 µM (inactive) | 25.4 µM (inactive) | 20.5 µM (inactive) | 25.4 µM (inactive) | 21.1 µM (inactive)
CC(C)CNc1nc(N)nc(O)c1NC=O | > 100 µM (inactive) | > 100 µM (inactive) | > 100 µM (inactive) | > 100 µM (inactive) | > 100 µM (inactive) | > 100 µM (inactive) | > 100 µM (inactive) | > 100 µM (inactive) | > 100 µM (inactive) | > 100 µM (inactive) | > 100 µM (inactive) | > 100 µM (inactive) | > 100 µM (inactive) | > 100 µM (inactive) | > 100 µM (inactive) | > 100 µM (inactive) | > 100 µM (inactive) | > 100 µM (inactive) | > 100 µM (inactive) | > 100 µM (inactive)
Cc1[nH]c(-c2ccccc2)c(-c2ccc(Cl)cc2)c1C(=O)ONC(=O)c1ccccc1 | 2.81 µM (inactive) | 8.38 µM (inactive) | 2.47 µM (inactive) | 5.07 µM (inactive) | 4.94 µM (inactive) | 2.34 µM (inactive) | 3.07 µM (inactive) | 1.9 µM (inactive) | 1.78 µM (inactive) | 1.77 µM (inactive) | 3.02 µM (inactive) | 1.75 µM (inactive) | 10.5 µM (inactive) | 10.2 µM (inactive) | 5.93 µM (inactive) | 2.19 µM (inactive) | 2.12 µM (inactive) | 3.2 µM (inactive) | 4 µM (inactive) | 4.6 µM (inactive)
Cc1cc(/N=C/c2ccc(N(C)C)cc2)n(-c2ccccc2)n1 | 46.8 µM (inactive) | > 100 µM (inactive) | 4.4 µM (inactive) | > 100 µM (inactive) | 48.4 µM (inactive) | 74.3 µM (inactive) | 57.8 µM (inactive) | 51.8 µM (inactive) | 27.4 µM (inactive) | > 100 µM (inactive) | 91.8 µM (inactive) | 22.2 µM (inactive) | 20.2 µM (inactive) | > 100 µM (inactive) | 24.8 µM (inactive) | 42.4 µM (inactive) | 44.4 µM (inactive) | 9.16 µM (inactive) | 78 µM (inactive) | 12.6 µM (inactive)
COc1cc(COC(=O)N2CC=CC2C(=O)O)c([N+](=O)[O-])cc1OC (stereo not given) | > 100 µM (inactive) | > 100 µM (inactive) | > 100 µM (inactive) | > 100 µM (inactive) | > 100 µM (inactive) | > 100 µM (inactive) | > 100 µM (inactive) | > 100 µM (inactive) | > 100 µM (inactive) | > 100 µM (inactive) | > 100 µM (inactive) | > 100 µM (inactive) | > 100 µM (inactive) | > 100 µM (inactive) | > 100 µM (inactive) | > 100 µM (inactive) | > 100 µM (inactive) | > 100 µM (inactive) | > 100 µM (inactive) | > 100 µM (inactive)
CN(C)c1ccc(C(c2ccc(N(C)C)cc2)c2ccc([N+](=O)[O-])cc2)cc1 | > 100 µM (inactive) | > 100 µM (inactive) | > 100 µM (inactive) | > 100 µM (inactive) | > 100 µM (inactive) | > 100 µM (inactive) | > 100 µM (inactive) | > 100 µM (inactive) | > 100 µM (inactive) | > 100 µM (inactive) | 15.1 µM (inactive) | > 100 µM (inactive) | > 100 µM (inactive) | > 100 µM (inactive) | > 100 µM (inactive) | > 100 µM (inactive) | > 100 µM (inactive) | > 100 µM (inactive) | > 100 µM (inactive) | > 100 µM (inactive)
OCC(O)C(O)C(O)C(O)c1nc2cc(Cl)ccc2[nH]1 (stereo not given) | > 100 µM (inactive) | > 100 µM (inactive) | > 100 µM (inactive) | > 100 µM (inactive) | > 100 µM (inactive) | > 100 µM (inactive) | > 100 µM (inactive) | > 100 µM (inactive) | > 100 µM (inactive) | > 100 µM (inactive) | > 100 µM (inactive) | > 100 µM (inactive) | 56.4 µM (inactive) | > 100 µM (inactive) | > 100 µM (inactive) | > 100 µM (inactive) | > 100 µM (inactive) | > 100 µM (inactive) | > 100 µM (inactive) | > 100 µM (inactive)
CC1=CP(=O)(c2c(C(C)C)cc(C(C)C)cc2C(C)C)CCC1Cl (stereo not given) | 15.9 µM (inactive) | 18.6 µM (inactive) | 17.7 µM (inactive) | 16.4 µM (inactive) | 13.4 µM (inactive) | 16.3 µM (inactive) | 16 µM (inactive) | 18.1 µM (inactive) | 14.8 µM (inactive) | 13.6 µM (inactive) | 13.3 µM (inactive) | 14.1 µM (inactive) | 19.4 µM (inactive) | 13.9 µM (inactive) | 14.9 µM (inactive) | 14.1 µM (inactive) | 14.7 µM (inactive) | 10.1 µM (inactive) | 21.2 µM (inactive) | 16.4 µM (inactive)
Cc1cc2c(c3oc(C(O)(CO)C4CO4)cc(=O)c13)C(=O)c1c(O)cccc1C2=O (stereo not given) | 0.00244 µM (active) | 0.00219 µM (active) | 0.00121 µM (active) | 0.00229 µM (active) | 0.000841 µM (active) | 0.00156 µM (active) | 0.0023 µM (active) | 0.000439 µM (active) | 0.000826 µM (active) | 0.00013 µM (active) | 0.000313 µM (active) | 4.14e-05 µM (active) | 0.00188 µM (active) | 0.00169 µM (active) | 0.00163 µM (active) | 0.00149 µM (active) | 0.00125 µM (active) | 0.0029 µM (active) | 0.000569 µM (active) | 0.00104 µM (active)
